We go through 4 compounds from patent US20250026733A1, “DEUTERATED ANALOGS OF PYROLE INHIBITORS OF ERK, SYNTHESIS THEREOF AND INTERMEDIATES THERETO” (BIOMED VALLEY DISCOVERIES, INC., priority 2022, published 2025).

As usually defined, the IC50 is the concentration that gives 50% inhibition. A higher IC50 goes with lower potency.

For one series, the target named is T1, CYP1A2 (Homo sapiens, UniProt P05177).
T1 construct: from tissue; host or cells: human liver microsomes, mixed-gender pool of 200
T1 sequence (P05177 1-516): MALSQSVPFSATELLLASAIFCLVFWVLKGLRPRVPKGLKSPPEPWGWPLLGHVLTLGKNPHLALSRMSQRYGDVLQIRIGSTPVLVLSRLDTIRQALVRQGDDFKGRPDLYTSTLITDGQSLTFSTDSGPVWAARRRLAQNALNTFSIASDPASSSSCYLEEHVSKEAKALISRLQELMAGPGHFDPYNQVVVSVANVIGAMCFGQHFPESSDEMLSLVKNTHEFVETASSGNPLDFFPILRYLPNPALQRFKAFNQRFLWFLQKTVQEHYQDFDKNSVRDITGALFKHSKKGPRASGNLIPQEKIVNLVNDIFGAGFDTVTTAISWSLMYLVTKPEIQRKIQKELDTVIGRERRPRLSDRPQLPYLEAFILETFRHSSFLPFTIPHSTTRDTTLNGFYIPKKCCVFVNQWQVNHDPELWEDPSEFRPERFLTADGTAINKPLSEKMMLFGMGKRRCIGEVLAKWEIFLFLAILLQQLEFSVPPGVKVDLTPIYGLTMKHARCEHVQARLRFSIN
In words: In-vitro CYP inhibition study, CYP1A2. The format is in vitro ADME. The settings on record: human liver microsomes, substrate Phenacetin (90 μM). Here is the method: (§1) Incubations were conducted using a cocktail of seven prototypical CYP substrates to ascertain the potential of each test article to inhibit the metabolism of concomitantly administered drugs. A mixed-gender pool of 200 human liver microsomal samples was used for this study. Incubations were conducted at approximately 37° C. in 200 μL incubation mixtures (pH 7.4) containing water, potassium phosphate buffer (50 mM), MgCl2 (3 mM), EDTA (1 mM), an NADPH regenerating system (NADP [1 mM], glucose 6 phosphate [5 mM], glucose 6 phosphate dehydrogenase [1 Unit/mL]), and probe substrate (i.e., a seven substrate cocktail) at the final concentrations indicated in Table 9. Reactions were initiated by the addition of NADPH-regenerating system and were automatically terminated at approximately 5 minutes by the addition of internal standard mixed in stop reagent, acetonitrile. The samples were centrifuged at 920×g for 10 minutes at 10° C. The supernatant fractions were analyzed by LC-MS/MS. To examine its ability to act as a time-dependent inhibitor of CYP enzymes, each test article (at the same concentrations used to evaluate direct inhibition, (i.e. 0, 0.02, 0.06, 0.2, 0.6, 2, 6, 20 μM) was pre-incubated at 37±2° C. with NADPH-fortified human liver microsomes for approximately 30 minutes. The pre-incubations were initiated by the addition of NADPH-regenerating system. After 30 min, probe substrate incubations were initiated by the addition of probe substrate cocktail. Incubations were terminated and samples were analyzed by LC-MS/MS. When inhibition was observed, the data were processed with a LIMS for the determination of IC50 values by utilizing the Levenberg-Marquardt algorithm to perform non-linear regression fitting of the data to the following 4-parameter sigmoidal-logistic IC50 equation:
(§2) As percent of control values are utilized, the minimum value (Min) is set to zero and the maximum value (Max) is set to 100 (or other values, as appropriate). The LIMS calculates an IC50 value only when it lies within the concentration range of the inhibitor studied. Therefore, when an IC50 value falls outside the concentration range studied, the IC50 values are reported to be greater than the highest concentration of the test article evaluated.
(In general: Microsomes from liver hold many membrane-bound enzymes, among them those of drug oxidation.)

For the next series, the target named is T2, CYP2C8 (Homo sapiens, UniProt P10632).
T2 construct: from tissue; host or cells: human liver microsomes, mixed-gender pool of 200
T2 sequence (P10632 1-490): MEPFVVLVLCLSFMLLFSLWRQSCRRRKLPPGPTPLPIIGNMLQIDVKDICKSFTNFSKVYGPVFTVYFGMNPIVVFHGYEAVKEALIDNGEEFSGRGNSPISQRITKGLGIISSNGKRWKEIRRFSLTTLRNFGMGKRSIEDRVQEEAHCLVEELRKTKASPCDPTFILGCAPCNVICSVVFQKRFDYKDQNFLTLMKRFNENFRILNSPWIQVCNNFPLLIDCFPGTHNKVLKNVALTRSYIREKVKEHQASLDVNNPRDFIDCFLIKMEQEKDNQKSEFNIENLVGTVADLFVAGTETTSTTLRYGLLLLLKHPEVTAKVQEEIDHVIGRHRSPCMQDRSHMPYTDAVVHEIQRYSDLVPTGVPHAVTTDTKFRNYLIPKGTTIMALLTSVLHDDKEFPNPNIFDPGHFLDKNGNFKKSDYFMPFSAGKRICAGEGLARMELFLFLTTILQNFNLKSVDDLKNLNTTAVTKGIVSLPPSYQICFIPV
The experiment in a line: In-vitro CYP inhibition study, CYP2C8. The settings on record: human liver microsomes, substrate Paclitaxel (5 μM). The format is in vitro ADME. How it is done: as §1, §2

The subject of another series is CYP3A4/5. The experiment in a line: In-vitro CYP inhibition study, CYP3A4/5. In kind it is in vitro ADME. The settings on record: both sexes, human, human liver microsomes, pH 7.4, probe Midazolam (3 μM), substrate Midazolam (3 μM). Here is the method:
as §1, §2

The nature of series [1]: Pharmacokinetics and metabolite formation in rats. The format is in vivo, rat. The settings on record: for AUC(0-t) / half-life: both sexes. Here is the method: Ulixertinib, Formulas 18A, 19A, and 21A were dosed twice daily (12 hours apart, ±30 minutes) for five consecutive days (10 doses/animal) to rats via oral gavage (PO). Each compound was administered at a dose of 12.5 mg/kg to 6 rats (3 male/3 female, N=6 rats/compound). Each compound was formulated in 1% (w/v) carboxymethylcellulose (CMC) in water at a concentration of 1.25 mg/mL. Following the second (p.m.) dose on Day 5, blood samples were collected from each rat at approximately 0.5, 1, 2, 4, 6, 8, and 12 hours post-dose. Blood samples were centrifuged to obtain plasma. Plasma samples were analyzed for concentrations of the dosed compounds and selected metabolites using an established LC-MS/MS method. The lower limit of quantitation of each compound was 1.00 ng/mL. The rat half-life values (determined by non-compartmental analysis using WinNonlin software) for each compound are shown in Table 7, and the areas under curve from time 0 to hour 12 (AUC0-12), calculated using the linear trapezoidal rule, for each dosed compound and selected metabolites are presented in Table 8.

Where two headings read alike, the source gives them in different places. Marks after values point to notes of the source that are not given here.

Consider `[2H]C([2H])([2H])C([2H])(Nc1cc(-c2c[nH]c(C(=O)N[C@H](CO)c3cccc(Cl)c3)c2)c(Cl)cn1)C([2H])([2H])[2H]` [Formula 18, 4-(5-chloro-2-((propan-2-yl-d7)amino)pyridin-4-yl)-N-(1-(3-chlorophenyl)-2-hydroxyethyl)-1H-pyrrole-2-carboxamide], for which the IC50 was > 20 µM against CYP1A2 (preincubation 0 min), 17 µM on CYP1A2 (preincubation 30 min), 9.6 µM at CYP2C8 (preincubation 0 min) and 11 µM against CYP2C8 (preincubation 30 min). Also, the IC50 at 5 min in the series with CYP3A4/5 (preincubation 0 min) was > 20 µM; in the series with CYP3A4/5 (preincubation 30 min) it was 14 µM.

As for `[2H]C([2H])([2H])C(Nc1cc(-c2c[nH]c(C(=O)N[C@H](CO)c3cccc(Cl)c3)c2)c(Cl)cn1)C([2H])([2H])[2H]` [Formula 19, 4-(5-chloro-2-((propan-2-yl-1,1,1,3,3,3-d6)amino)pyridin-4-yl)-N-(1-(3-chiorophenyl)-2-hydroxyethyl)-1H-pyrrole-2-carboxamide], the IC50 is > 20 µM at CYP1A2 (preincubation 0 min), 19 µM against CYP1A2 (preincubation 30 min), 10 µM at CYP2C8 (preincubation 0 min) and 12 µM against CYP2C8 (preincubation 30 min). The IC50 at 5 min in the series on CYP3A4/5 (preincubation 0 min) is > 20 µM; in the series with CYP3A4/5 (preincubation 30 min) it was 13 µM.

For the compound `Cl.[2H]C(C)(C)Nc1cc(-c2c[nH]c(C(=O)N[C@H](CO)c3cccc(Cl)c3)c2)c(Cl)cn1` [Formula 21A], in series [1] (rat, in vivo, po, 12.5 mg/kg), the AUC(0-t) amounted to 193 µg·h/mL and the half-life is 3.81 h. Also, in series [1] (both, rat, in vivo), the “AUC0-12 M2, percent change relative to Ulixertinib” value was “(−17%^a)”; the “AUC0-12 M3, percent change relative to Ulixertinib” value was “(+8%^a)”; the “AUC0-12 M6, percent change relative to Ulixertinib” value is “(+7%^a)”; the “AUC0-12 Parent, percent change relative to Ulixertinib” value is given as “(+12%^a)”. Moreover, in series [1] (both, rat, in vivo), the “Half-life, percent change relative to Ulixertinib” value was “(+4%^a)” and the “longer mean half-life than ulixertinib” value worked out at 4%. The IC50 on CYP1A2 (preincubation 0 min) is > 20 µM. Besides, the IC50 against CYP1A2 (preincubation 30 min) was > 20 µM. Moreover, on CYP2C8 (preincubation 0 min), the 50% inhibitory concentration (IC50) amounted to 19 µM. The compound also yielded an IC50 on CYP2C8 (preincubation 30 min) of 19 µM. Further, the IC50 at 5 min with CYP3A4/5 (preincubation 0 min) is > 20 µM. Moreover, the midpoint of inhibition in the series with CYP3A4/5 (preincubation 30 min), the IC50 at 5 min, lay at 17 µM.

Consider `CC(C)Nc1cc(-c2c[nH]c(C(=O)N[C@H](CO)c3cccc(Cl)c3)c2)c(Cl)cn1` [Ulixertinib, reference compound], for which the AUC(0-t) in series [1] (rat plasma, 12.5 mg/kg PO twice daily for five days, after second dose on Day 5, N=6, read-out: AUC0-12, Parent, Mean) amounted to 173 µg·h/mL. Also, the half-life in series [1] (rat plasma, 12.5 mg/kg PO twice daily for five days, after second dose on Day 5, N=6, read-out: Half-life, t1/2, Mean (converted)) is 3.67 h. Besides, the IC50 at CYP1A2 (preincubation 0 min) is > 20 µM; at CYP1A2 (preincubation 30 min) it was 13 µM; against CYP2C8 (preincubation 0 min) it was 8.5 µM; against CYP2C8 (preincubation 30 min), 9.2 µM. Besides, the figures for the IC50 at 5 min in the series on CYP3A4/5 (preincubation 0 min) and in the series on CYP3A4/5 (preincubation 30 min) were > 20 µM and 14 µM, respectively.
